Structures are written as SMILES.

Here are results for 35 molecules from publication PMC6895048, “4,5-Disubstituted 1,2,3-triazoles: Effective Inhibition of Indoleamine 2,3-Dioxygenase 1 Enzyme Regulates T cell Activity and Mitigates Tumor Growth” (Scientific Reports, 2019).

Assay [1] addresses T1, purified human IDO1 enzyme (Homo sapiens, UniProt P14902).
T1 construct: made in house; host or cells: Escherichia coli M15 (pQE30 vector with pREP4 plasmid)
Nature of the assay: IDO1 inhibition assay by the spectrometric method (pDMAB). To be noted: for IC50: purified human IDO1, spectrophotometric, mean of three independent assays, read-out: hIDO1 IC50. Format: biochemical. The method, then:
Both IDO1 and TDO inhibition assays were performed according to the reported procedures[26]–[30],[50],[51]. […] In the assay system, the minimum and maximum amount of DMSO was 0.02% and 2%, respectively. […] The concentration of the inhibitors was varied from 100 µM to 32 nM by serial dilution technique. Then, the reaction was quenched with 100 µL of 30% (w/v) trichloroacetic acid and was incubated for further 15 minutes at 65 °C. After that, 2% (w/v) pDMAB was used to quantify the amount of kynurenine formation. The absorbance of the reaction mixture was recorded by UV-Vis spectrophotometer at 480 nm.

Assay [2] addresses T2, purified human TDO enzyme (Homo sapiens, UniProt P48775).
T2 construct: 6xHis (N); made in house; host or cells: Escherichia coli BL21 (DE3) (pET 28a vector)
In words: TDO inhibition assay by the spectrometric method. The assay is classed as biochemical. To be noted: spectrophotometric. The method, then: Both IDO1 and TDO inhibition assays were performed according to the reported procedures[26]–[30],[50],[51]. The solubility of the compounds in water was either moderate or poor. […] In the assay system, the minimum and maximum amount of DMSO was 0.02% and 2%, respectively. The standard reaction mixture (500 μL) containing KPB (100 mM, pH 6.5 for IDO1 enzyme and 50 mM, pH 8.0 for TDO enzyme), sodium ascorbate (20 mM), methylene blue (10 µM), catalase (240 nM, from bovine liver), L-Trp (150 µM), purified enzyme (40 nM for IDO1 and 25 nM for TDO), DMSO (0.05%, v/v), Triton-X 100 (0.01%, v/v) and inhibitors was incubated at 37 °C for 1 hour. The concentration of the inhibitors was varied from 100 µM to 32 nM by serial dilution technique. Then, the reaction was quenched with 100 µL of 30% (w/v) trichloroacetic acid and was incubated for further 15 minutes at 65 °C. After that, 2% (w/v) pDMAB was used to quantify the amount of kynurenine formation. The absorbance of the reaction mixture was recorded by UV-Vis spectrophotometer at 480 nm. The Km = 59.76 µM and Kcat = 6.18 sec^−1.

T2 sequence (P48775 whole entry): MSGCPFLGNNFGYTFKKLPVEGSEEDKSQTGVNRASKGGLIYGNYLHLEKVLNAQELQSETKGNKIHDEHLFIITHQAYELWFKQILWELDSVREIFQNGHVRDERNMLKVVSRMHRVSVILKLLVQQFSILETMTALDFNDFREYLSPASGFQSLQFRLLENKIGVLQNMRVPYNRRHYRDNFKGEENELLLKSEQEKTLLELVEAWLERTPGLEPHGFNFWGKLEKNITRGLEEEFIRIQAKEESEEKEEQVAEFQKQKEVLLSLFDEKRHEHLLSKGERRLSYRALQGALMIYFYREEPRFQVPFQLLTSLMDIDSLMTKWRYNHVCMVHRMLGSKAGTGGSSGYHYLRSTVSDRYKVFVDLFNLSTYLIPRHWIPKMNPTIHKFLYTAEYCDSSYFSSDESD
T1 sequence (P14902 whole entry): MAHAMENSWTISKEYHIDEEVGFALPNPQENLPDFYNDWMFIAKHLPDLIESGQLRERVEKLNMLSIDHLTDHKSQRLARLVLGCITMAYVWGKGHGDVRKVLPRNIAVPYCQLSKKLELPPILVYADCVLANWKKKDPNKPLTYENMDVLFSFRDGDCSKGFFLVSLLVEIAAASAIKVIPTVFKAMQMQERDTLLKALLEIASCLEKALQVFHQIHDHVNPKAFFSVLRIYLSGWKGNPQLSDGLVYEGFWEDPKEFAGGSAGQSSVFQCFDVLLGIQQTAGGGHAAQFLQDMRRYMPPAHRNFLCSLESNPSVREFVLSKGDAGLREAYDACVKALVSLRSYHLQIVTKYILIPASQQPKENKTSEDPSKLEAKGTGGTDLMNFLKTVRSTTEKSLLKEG

As for `NC(=O)c1n[nH]nc1-c1cccc(Br)c1` [Compound 3e], in assay [1], the IC50 stood at 26.7 ± 2.2 µM.
`Fc1ccc(-c2n[nH]nc2-c2ccc(F)c(Br)c2)cc1Br` [1 l]: the “fold stronger IDO1 inhibitory activity than 1a” value in assay [1] (in comparison with lead compound 1a) is listed as 46 fold. For the same molecule, the IC50 in assay [1] was found to be 1.94 ± 0.083 µM.
With `NC(=O)c1n[nH]nc1-c1ccc(F)c(Cl)c1` [Compound 3k], the IC50 in assay [1] worked out at 1.83 ± 0.126 µM.
In the case of `Cc1ccc(-c2n[nH]nc2C(N)=O)cc1` [Compound 3b], the half-maximal inhibitory concentration (IC50) in assay [1] is 7.08 ± 0.691 µM.
Regarding `Clc1cccc(-c2n[nH]nc2-c2cccc(Cl)c2)c1` [Compound 1d], the half-maximal inhibitory concentration (IC50) in assay [1] was 2.51 ± 0.06 µM.
Still for that read-out and setting: the value for `Brc1ccc(-c2n[nH]nc2-c2ccc(Br)cc2)cc1` [Compound 1h] was 40.7 ± 2.7 µM.
`NC(=O)c1n[nH]nc1-c1ccc(Cl)cc1` [Compound 3g]: the IC50 in assay [1] came to 0.624 ± 0.023 µM. In addition, the “% of Enzyme inhibition (TDO)” value in assay [2] (32 nM) amounted to 5%; in assay [2] (160 nM), 8%; in assay [2] (800 nM) it was 15%; in assay [2] (4 µM), 27%; in assay [2] (20 µM), 35%; in assay [2] (100 µM), 39%.
For the molecule `Fc1cccc(-c2n[nH]nc2-c2cccc(F)c2)c1` [Compound 1c], in assay [1], the half-inhibitory concentration (IC50) worked out at 4.99 ± 0.057 µM.
Turning to `O=C(N/C(Cc1ccc(F)c(F)c1)=N\O)c1n[nH]nc1-c1ccc(F)c(F)c1` [Compound 4h], in assay [1], the half-inhibitory concentration (IC50) was found to be 3.81 ± 0.24 µM.
Regarding `CCOC(=O)c1n[nH]nc1-c1ccc(Cl)cc1` [Compound 2g], in assay [1], the IC50 worked out at 0.392 ± 0.084 µM. For the same molecule, the “% of Enzyme inhibition (TDO)” value in assay [2] (32 nM) turned out to be 16%; in assay [2] (160 nM), 18%; in assay [2] (800 nM), 23%; in assay [2] (4 µM) it was 28%; in assay [2] (20 µM), 36%; in assay [2] (100 µM) it was 46%.
Regarding `CCOC(=O)c1n[nH]nc1-c1ccc(Br)cc1` [Compound 2h], in assay [1], the 50% inhibitory concentration (IC50) worked out at 18.4 ± 1.68 µM.
`Cc1ccc(-c2n[nH]nc2-c2ccc(C)cc2)cc1` [Compound 1b]: the 50% inhibitory concentration (IC50) in assay [1] came to 54.9 ± 0.757 µM.
As to `Clc1ccc(-c2n[nH]nc2-c2ccc(Cl)c(Cl)c2)cc1Cl` [Compound 1j], the IC50 in assay [1] stood at 12.9 ± 0.191 µM.
Same read-out and setting: the value for `NC(=O)c1n[nH]nc1-c1cccc(F)c1` [Compound 3c] was 6.61 ± 0.355 µM; that for `CC(=O)Nc1ccc(/C(=N/O)NC(=O)c2n[nH]nc2-c2ccc(F)c(F)c2)cc1` [Compound 4j] was 2.36 ± 0.308 µM; that for `CCOC(=O)c1n[nH]nc1-c1cccc(F)c1` [Compound 2c] was 31.4 ± 4.21 µM.
As to `NC(=O)c1n[nH]nc1-c1ccc(F)c(Br)c1` [3 l], the IC50 in assay [1] was 1.993 ± 0.005 µM.
For `CCOC(=O)c1n[nH]nc1-c1ccc(F)cc1` [Compound 2f], the concentration for half-maximal inhibition (IC50) in assay [1] came to 8.09 ± 0.21 µM.
In the case of `CCOC(=O)c1n[nH]nc1-c1ccc(F)c(Br)c1` [2 l], the IC50 in assay [1] was 3.04 ± 0.091 µM.
In the case of `Clc1ccc(-c2n[nH]nc2-c2ccc(Cl)cc2)cc1` [Compound 1g], the IC50 in assay [1] worked out at 3.21 ± 0.1 µM.
Still for that read-out and setting: in the case of `Brc1cccc(-c2n[nH]nc2-c2cccc(Br)c2)c1` [Compound 1e] it was 21.9 ± 1.27 µM; in that of `Fc1ccc(-c2n[nH]nc2-c2ccc(F)c(F)c2)cc1F` [Compound 1i], 7.72 ± 0.761 µM; in that of `CCOC(=O)c1n[nH]nc1-c1ccc(C)cc1` [Compound 2b], 1.7 ± 0.061 µM.
In the case of `O=C(N/C(Cc1ccccc1)=N\O)c1n[nH]nc1-c1ccc(F)c(F)c1` [Compound 4g], the concentration for half-maximal inhibition (IC50) in assay [1] was 0.88 ± 0.018 µM.
The same measure, in the same setting: the value for `Fc1ccc(-c2n[nH]nc2-c2ccc(F)c(Cl)c2)cc1Cl` [Compound 1k] was 6.91 ± 0.099 µM; that for `CCOC(=O)c1n[nH]nc1-c1ccc(F)c(Cl)c1` [Compound 2k] was 1.69 ± 0.102 µM; that for `CCOC(=O)c1n[nH]nc1-c1cccc(Cl)c1` [Compound 2d] was 2.55 ± 0.033 µM.
As to `CCOC(=O)c1n[nH]nc1-c1cccc(Br)c1` [Compound 2e], in assay [1], the IC50 is 2.981 ± 0.012 µM.
Same read-out and setting: the value for `CC(C)(C)OC(=O)NCCNC(=O)c1n[nH]nc1-c1ccc(F)c(F)c1` [Compound 4f] was 2.74 ± 0.195 µM.
Consider `NC(=O)c1n[nH]nc1-c1ccc(Br)cc1` [Compound 3h], for which the half-maximal inhibitory concentration (IC50) in assay [1] came out at 5.156 ± 0.011 µM.
As for `NC(=O)c1n[nH]nc1-c1ccc(F)cc1` [Compound 3f], in assay [1], the IC50 worked out at 2.94 ± 0.034 µM.
The same measure, in the same setting: in the case of `NC(=O)c1n[nH]nc1-c1cccc(Cl)c1` [Compound 3d] it was 2.69 ± 0.055 µM; in that of `Fc1ccc(-c2n[nH]nc2-c2ccc(F)cc2)cc1` [Compound 1f], 25.2 ± 1.7 µM.
`c1ccc(-c2nn[nH]c2-c2ccccc2)cc1` [Compound 1a, 4,5-diphenyl 2H-1,2,3-triazole]: in assay [1], the IC50 amounted to 90 ± 2.94 µM. Further, the inhibition at 0.032 µM in assay [2] (32 nM) worked out at 8%. In addition, 0.16 µM produced 10% inhibition in assay [2] (160 nM). The inhibition at 0.8 µM in assay [2] (800 nM) turned out to be 19%. Also, testing at 4 µM in assay [2] (4 µM) gave an inhibition of 28%. This molecule came in with an inhibition at 20 µM in assay [2] (20 µM) of 40%. The same molecule had an inhibition at 100 µM in assay [2] (100 µM) of 59%.
As for `O=C(NC1C2CC3CC(C2)CC1C3)c1n[nH]nc1-c1ccc(Cl)c(Cl)c1` (stereo not drawn) [Compound 4e], the IC50 in assay [1] was 18.7 ± 0.398 µM.
